Values quoted from earlier work, collected in US12006297B2, “Antibacterial activity of functionalized dihydropyrimidines” (WiSys Technology Foundation, Inc., priority 2021, dated 2024).

Tests used:
[1] = test system: skin infections
[2] = test system: MRSA; conditions: versus oxacillin and erythromycin
[3] = molecular target: DHFR (Staphylococcus aureus, UniProt P0A017)
Sequence of DHFR (P0A017 whole entry): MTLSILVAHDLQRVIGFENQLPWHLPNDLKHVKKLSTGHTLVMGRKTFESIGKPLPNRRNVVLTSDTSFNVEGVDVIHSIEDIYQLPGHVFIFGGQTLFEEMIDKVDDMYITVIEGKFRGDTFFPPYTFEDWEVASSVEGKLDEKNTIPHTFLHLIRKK

Compound | side effects ([1]; clinical trials) | efficacy versus vancomycin ([1]; control of skin infections, phase 2 and 3 clinical trials) | MRSA growth inhibition compared with approved antibiotics [2] | mechanism of DHFR inhibition [3]
COc1cc(Cc2cnc(N)nc2N)c2c(c1OC)OC(C1CC1)C=C2 (racemic) [Iclaprim] | mild to moderate side effects | non-inferiority |  | 
CCOC(=O)C1=C(CC)NC(N)=NC1c1cc(Cl)cc(Cl)c1O (stereo not shown) [HAK-22, emmacin] |  |  | inhibiting the growth of MRSA at concentrations lower than approved antibiotics | unique allosteric uncompetitive mechanism
